From PMC11434480, “Discovery and Optimization of Ergosterol Peroxide Derivatives as Novel Glutaminase 1 Inhibitors for the Treatment of Triple-Negative Breast Cancer” (Molecules, 2024)

How the values were obtained:
[1] = tested on: A549; test: MTT antiproliferative assay, A549; type: cell-based, human; conditions: Homo sapiens, A549, 48 h, mean of three experiments ± SD
Method: (§2) The in vitro antiproliferative activity of the novel EP derivatives (1a–h, 2a–h, 3a–h, and 4a–h) was evaluated on four different human cancer cell lines (A549, HepG2, MCF-7, and MDA-MB-231) using an MTT assay.
(§3) Cells containing 10% fetal bovine serum (FBS; WISENT, Nanjing, China) were cultured in an L-15 culture medium (L-15, BOSTER, Wuhan, China) in an incubator at 37 °C. The cells were then inoculated into 96-well plates at a density of 5 × 10^3/well, cultured in 100 μL L-15 medium for 24 h, and incubated with the compound to be tested for 48 h. Next, 20 μL of MTT (5 mg/mL) solution was added and incubated at 37 °C for 4 h away from light. A resorption culture medium was then supplemented with 150 μL DMSO per well. The absorbance was measured at 570 nm using an enzymometer (SAFIRE2, Tecan, Swiss Confederation, Männedorf, Switzerland). The cytotoxic activity was presented in terms of half the inhibition rate.

[2] = tested on: HepG2; test: MTT antiproliferative assay, HepG2; type: cell-based, human; conditions: Homo sapiens, HepG2, 48 h, mean of three experiments ± SD
Method: as §2, §3

[3] = tested on: MCF-7; test: MTT antiproliferative assay, MCF-7; type: cell-based, human; conditions: Homo sapiens, MCF7, 48 h, mean of three experiments ± SD
Method: as §2, §3

[4] = tested on: MDA-MB-231; test: MTT antiproliferative assay, MDA-MB-231; type: cell-based, human
Method: as §2, §3

[5] = target: T1, human GLS1 (Homo sapiens, UniProt O94925); test: GLS1 inhibitor screening kit in MDA-MB-231 cells; type: cell-based; conditions: 48 h, read-out: GLS1 inhibition IC50
T1 sequence (O94925 55-669): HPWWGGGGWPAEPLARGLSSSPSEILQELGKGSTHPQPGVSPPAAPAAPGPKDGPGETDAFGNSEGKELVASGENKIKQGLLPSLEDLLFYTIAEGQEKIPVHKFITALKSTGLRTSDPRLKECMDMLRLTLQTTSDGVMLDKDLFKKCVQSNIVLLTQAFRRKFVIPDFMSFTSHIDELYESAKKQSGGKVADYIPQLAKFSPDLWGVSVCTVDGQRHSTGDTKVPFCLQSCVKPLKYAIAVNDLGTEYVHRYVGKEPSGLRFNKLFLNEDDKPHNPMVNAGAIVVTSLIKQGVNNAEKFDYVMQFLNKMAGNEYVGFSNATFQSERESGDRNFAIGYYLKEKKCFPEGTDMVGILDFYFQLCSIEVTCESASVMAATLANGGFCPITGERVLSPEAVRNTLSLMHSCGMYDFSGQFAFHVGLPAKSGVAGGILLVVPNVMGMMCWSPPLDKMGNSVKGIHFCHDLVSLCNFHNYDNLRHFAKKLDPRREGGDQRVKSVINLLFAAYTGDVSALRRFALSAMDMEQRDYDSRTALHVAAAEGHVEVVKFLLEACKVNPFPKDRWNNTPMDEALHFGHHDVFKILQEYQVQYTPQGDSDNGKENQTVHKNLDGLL
Method: The GLS1 inhibitory activity of compound 3g in MDA-MB-231 cells was evaluated using a GLS1 inhibitor screening kit.
MDA-MB-231 cells were cultured for 24 h and then incubated with different concentrations of 3g or 0.1%DMSO for 48 h and washed with PBS 1–2 times. The cells were then collected, subjected to ultrasound in an ice bath for 5 min, and centrifuged at 4 °C and 1200 g for 15 min. Next, the GLS1 activity in human GLS1 was evaluated according to the manufacturer’s guidelines using a GLS1 screening kit (Sangon Biotech #D799306, Shanghai, China) in a 96-well plate (Corning # 351172, New York, NY, USA).

[6] = tested on: MDA-MB-231 cells; test: Colony formation assay; type: cell-based; conditions: Homo sapiens, MDA-MB-231 colony formation, vs blank control, read-out: proliferation inhibition rate
Method: To explore the inhibitory effect of 3g on the proliferation of MDA-MB-231 cells, we treated MDA-MB-231 cells with different concentrations of 3g and EP.
MDA-MB-231 cells (1000 cells/well) were seeded into a 6-well plate with 2 mL L–15 culture medium and incubated at 37 °C for 24 h. Following this process, different concentrations of 3g or EP were added and incubated for an additional 24 h before the culture medium was replaced. The cells then continued to be cultured for two weeks, with the culture medium being changed twice a week. After two weeks, the cell colonies were washed with PBS, fixed using a 4% paraformaldehyde solution (Beyotime, Shanghai, China), and subsequently stained with a 0.05% crystal violet solution (Beyotime, Shanghai, China).

[7] = tested on: MDA-MB-231 cells; test: Annexin V-FITC/PI apoptosis assay (flow cytometry); type: cell-based, human; conditions: Annexin V-FITC/PI double staining, 48 h
Method: (§1) To determine whether the decrease in MDA-MB-231 cell viability observed after 3g treatment was related to apoptosis, we treated MDA-MB-231 cells with 3g and assessed the changes in apoptosis.
An Annexin V FITC/PI apoptosis detection kit (Keygen Company, Nanjing, China) was employed to identify apoptotic cells. Briefly, MDA-MB-231 cells were subjected to treatment with varying concentrations of 3g or 0.1% DMSO and incubated at 37 °C for 48 h. Subsequently, the cells were harvested and resuspended in PBS at a concentration of 1 × 10^5 cells/mL. Following centrifugation at 2000 rpm/min for 5 min, 500 μL binding buffer, 5 μL Annexin V FITC, and 5 μL propidium iodide (PI) were added. The mixture was then incubated at room temperature in the absence of light for 20 min. Finally, the samples were analyzed using FACSCalibur flow cytometry (Becton, Dickinson and Company, Franklin Lakes, USA).

[8] = tested on: MDA-MB-231 cells; type: cell-based, human; conditions: 2, 4 and 8 μM, 48 h
[9] = tested on: MDA-MB-231 cells; test: ROS assay (DCFH-DA, confocal microscopy and flow cytometry); type: cell-based, human; conditions: MDA-MB-231, different concentrations, 48 h
Method: Excessive ROS in tumor cells can induce tumor cell apoptosis. Nevertheless, the ROS levels in tumor cells were often influenced by glutamine. Thus, the regulation of glutamine metabolism was crucial for ROS homeostasis. In this study, laser confocal microscopy and flow cytometry were employed to detect the ROS level.
MDA-MB-231 cells were inoculated in 24-well plates at a density of 8 × 10^3 cells per well and incubated with different concentrations of 3 g or 0.1% DMSO for 48 h. The cells were washed with PBS 1–2 times. The cells were then incubated at 37 °C for 20 min with reference to a DCFH-DA fluorescent probe kit (Keygen Company, Nanjing, China) and washed with a serum-free medium 1–2 times. The ROS levels were observed via laser confocal microscopy (LSM710, Zeiss, Oberkochen, Germany) or detected with flow cytometry (FACS Calibur, Becton, Dickinson and Company, Franklin Lakes, NJ, USA).

[10] = tested on: MDA-MB-231 cells; test: Western blot of apoptosis proteins; type: cell-based, human; conditions: MDA-MB-231, 48 h
Method: as §1
MDA-MB-231 cells were subjected to treatment with different concentrations of 3g or 0.1% DMSO for 48 h. Subsequently, the cells were gathered, and the total protein was extracted by adding protease inhibitors and phosphatase inhibitors along with 1 × RIPA lysis buffer (Beyotime Company). The quantification of the extracted protein was carried out using a BCA kit (ComWin Biotech Company, Beijin, China). The extracted total protein, with an amount of 20 μg/well, underwent SDS–polyacrylamide gel electrophoresis (SDS-PAGE, provided by BioRad Laboratories located in Hercules, CA, USA). The protein was then wet-transferred to a PVDF membrane. Next, GLS1, Bcl-2, Bax, Cyt C, caspase-9, cleaved caspase-9, caspase-3, cleaved caspase-3, and GAPDH were incubated at 4 °C overnight. Subsequently, the secondary isotype-specific antibody, which was labeled with horseradish peroxidase, was obtained from Cell Signaling Technology. The color was developed with an ECL luminescent solution (Meilun Biotech Company, Dalian, China) and detected using a gel imager (ChemiDoc MP, BioRad Laboratories, CA, USA).

[11] = tested on: 4T1 cells; test: 4T1 transplanted tumor model in BALB/c mice
[12] = 25 and 50 mg/kg/2 days, intraperitoneal, 14 days

Question: What does the source list for COc1ccc(NC(=O)CCCC(=O)OC2CCC3(C)C4CCC5(C)C(C(C)C=CC(C)C(C)C)CCC5C45C=CC3(C2)OO5)cc1 (stereo not drawn) [Compound 3g]?
Answer: IC50 [1]: 13.5 ± 1.14 µM; IC50 [2]: 15.5 ± 0.63 µM; IC50 [3]: 4.57 ± 0.62 µM; IC50 ([4]; Homo sapiens, MDA-MB-231, MTT, 48 h, mean of three experiments ± SD): 3.2 ± 0.29 µM; fold higher activity than EP against MDA-MB-231 ([4]; ratio of IC50 values, EP vs compound): 5.4 fold; IC50 [5]: 3.77 µM; inhibition at 2 µM [6]: 56.3%; apoptosis of MDA-MB-231 cells [7]: increased significantly; glutamate production in MDA-MB-231 cells [8]: reduced the production of glutamate in MDA-MB-231 cells in a dose-dependent manner; intracellular ROS level [9]: significantly elevated the intracellular ROS level; expression of Bax, Cyt C, cleaved caspase-9 and cleaved caspase-3 [10]: significantly upregulated; expression of Bcl-2 [10]: decreased the expression; effect on body weights of the mice [11, 12]: no significant effect; tumor volume and tumor weight [11, 12]: significantly reduced; tumor growth ([11]; 25 and 50 mg/kg/2 days, intraperitoneal, 14 days, vs blank control): effectively inhibited; therapeutic effect in mouse model of breast cancer ([11]; dose of 50 mg/kg): remarkable therapeutic effects; toxicity in mouse model of breast cancer ([11]; dose of 50 mg/kg): no apparent toxicity; histopathological changes in heart, liver, spleen, lungs and kidneys (HE staining) ([11]; tumor-bearing mice, 14 days treatment): no histopathological changes
